# What was measured:
# [1] = target: T1, Pseudomonas aeruginosa LasR, SEQ ID NO: 1 (UniProt: PSPA7_3898), in sensing device pTetR-LasR-pLuxR-GFP (Pseudomonas aeruginosa, UniProt P25084); assay: Characterization/transfer function of the LasR sensing device (pTetR-LasR-pLuxR-GFP) with 3OC12HSL, GFP reporter in E. coli TOP10; format: cell-based, P. aeruginosa
# T1 construct: expressed in transfected cells; host or cells: E. coli TOP10 (plasmid pTetR-LasR-pLuxR-GFP in pSB1A2)
# Description: Single colonies of pTetR-LasR-pLuxR-GFP (Top10) were each inoculated into 5 ml of pre-warmed supplemented M9 ampicillin for overnight culture in a shaking incubator at 37° C. After overnight growth, the cultures were diluted to OD600 of 0.002 and allowed to incubate further to OD600 of 0.5 or 5.0E7 cfu/ml under the same condition. […] The plate was incubated at 37° C. with rapid shaking in a microplate reader (Biotek) and assayed for green fluorescence. Time-series fluorescence and OD600 data were obtained at intervals of 10 mins for a total run time of 3 hrs. The measurement was zeroed with supplemented M9 to remove background fluorescence and OD600. A relative GFP production rate was derived as a ratio of background subtracted green fluorescence to OD600 value.
# The four parameters (A, B, C, n) were estimated to obtain the best fit curve by performing a non-linear curve fitting using the experimental results. This curve fitting was performed using MATLAB Curve Fitting Toolbox (The Mathworks, Natwick, Mass., USA).
# [2] = tested on: E. coli carrying pTetR-LasR-pLuxR-E7; assay: Characterization of lysis device with 3OC12HSL (OD600 of E. coli carrying pTetR-LasR-pLuxR-E7); format: cell-based
# Description: Characterization of Lysis Device with 3OC12HSL
# Overnight cultures of pTetR-LasR-pLuxR-E7 (Top10) were diluted in supplemented M9 and harvested at an OD600 of 0.5. […] The plate was incubated at 37° C. with rapid shaking in a microplate reader (Biotek) and assayed for cell turbidity. Time-series absorbance at OD600 was obtained at intervals of 10 mins for a total run time of 6 hrs. The result was zeroed with supplemented M9 to remove background absorbance.
# The system according to various embodiments was designed to release pyocin S5 through lysis upon detection of P. aeruginosa. To determine the lysis activity of the system, the behavior of the E7 lysis protein under the transcriptional control of the sensing device before integrating both the pyocin S5 and E7 genes into the system was characterized. […] To further confirm that the lysis activity may be sustained in the final system including pyocin S5, the morphology of E. coli containing the final system (i.e., pTetR-LasR-pLuxR-S5-pLuxR-E7; FIG. 1B) was monitored using FESEM.
# T1 sequence (P25084 whole entry M144I): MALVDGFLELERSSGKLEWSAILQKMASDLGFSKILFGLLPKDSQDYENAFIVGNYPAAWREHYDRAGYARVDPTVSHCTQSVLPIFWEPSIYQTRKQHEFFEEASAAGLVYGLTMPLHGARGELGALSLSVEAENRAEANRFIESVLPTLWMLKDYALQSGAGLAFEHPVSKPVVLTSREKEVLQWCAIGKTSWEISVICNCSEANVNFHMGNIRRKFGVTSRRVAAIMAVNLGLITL
compound,measurement,setting,value
"CCCCCCCCCC(=O)CC(=O)N[C@H]1CCOC1=O [3OC12HSL, N-3-oxododecanoyl homoserine lactone]",input concentration at which the sensing device saturated,"[1]; Hill model, >3.3E-7M but <1.0E-6M",> 330 nM
same,maximum output (GFP production rate) at saturation,"[1]; Hill model, input concentration >3.3E-7M but <1.0E-6M",1.96 RFU per OD per minute
same,concentration at which GFP production rate peaked,"[1]; sharp increase beyond 1.0E-7M, sharp decline after peak",1000 nM
same,growth/lysis of E. coli (OD600) at 1.0E-6 and 1.0E-4M 3OC12HSL,[2]; 1.0E-6 and 1.0E-4M 3OC12HSL,significant reduction in optical density
same,growth/lysis of E. coli (OD600) at 1.0E-8M 3OC12HSL,[2]; 1.0E-8M 3OC12HSL,no noticeable transition into a lysis state
same,minimal effective concentration,"[2]; Escherichia coli, 2 h, read-out: concentration causing observable cell lysis",≥ 1 µM

# From US9603877B2, “Isolated nucleotide molecule and method of sensing and killing of pathogenic microorganism” (priority 2011, dated 2017)
